Target: T1, human TRPV4 (Homo sapiens, UniProt Q9HBA0)
T1 construct: host or cells: tetracycline-inducible Flp-In T-REx 293 cells
Test: Hypotonicity-induced Ca2+ influx (Fluo-4, FDSS)
Format: cell-based
Summary of the method: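 Flp-In T-REx 293 cells with tetracycline-induced human TRPV4, loaded with Fluo-4 for 60 min at 25 °C. Compound added 5 min before hypotonic mannitol/CaCl2 solution. Ca2+ signal recorded for 4.5 min on FDSS.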

[1] = Flp-In T-REx 293 cells expressing human TRPV4, examples listed under heading 'Human IC50<50 nM'
[2] = Flp-In T-REx 293 cells stably expressing human TRPV4, compounds listed by potency bin (<10 nM Tables 96-1/96-2, <3 nM Table 97)

T1 sequence (Q9HBA0 whole entry): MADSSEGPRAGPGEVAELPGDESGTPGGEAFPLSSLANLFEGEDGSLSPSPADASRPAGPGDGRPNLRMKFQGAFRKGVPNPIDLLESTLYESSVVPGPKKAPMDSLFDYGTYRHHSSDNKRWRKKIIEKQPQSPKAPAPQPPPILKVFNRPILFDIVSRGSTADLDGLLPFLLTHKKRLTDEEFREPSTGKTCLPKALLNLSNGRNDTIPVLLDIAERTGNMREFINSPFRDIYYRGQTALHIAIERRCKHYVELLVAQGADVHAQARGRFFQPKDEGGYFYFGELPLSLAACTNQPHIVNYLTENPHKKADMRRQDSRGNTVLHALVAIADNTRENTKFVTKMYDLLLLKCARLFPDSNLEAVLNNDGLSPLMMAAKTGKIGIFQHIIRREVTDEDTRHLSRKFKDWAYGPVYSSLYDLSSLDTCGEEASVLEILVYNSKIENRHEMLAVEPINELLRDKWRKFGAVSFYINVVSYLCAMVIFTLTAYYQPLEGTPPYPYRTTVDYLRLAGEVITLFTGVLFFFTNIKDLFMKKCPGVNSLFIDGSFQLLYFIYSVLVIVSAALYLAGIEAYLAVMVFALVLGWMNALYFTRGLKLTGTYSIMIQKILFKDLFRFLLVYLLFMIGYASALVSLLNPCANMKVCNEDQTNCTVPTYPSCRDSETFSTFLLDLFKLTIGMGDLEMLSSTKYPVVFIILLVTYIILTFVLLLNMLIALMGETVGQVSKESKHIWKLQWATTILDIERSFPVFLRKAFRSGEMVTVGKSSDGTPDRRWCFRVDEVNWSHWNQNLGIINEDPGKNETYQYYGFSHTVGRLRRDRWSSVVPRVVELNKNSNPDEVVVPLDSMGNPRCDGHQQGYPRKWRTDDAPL

CN(Cc1ccc(-c2cccc(C3(c4nc5c(c(=O)[nH]4)CN(C(=O)[C@H](O)c4cccc(C(F)(F)F)c4)CCC5)CC3)c2)cc1)C(=O)N1CCCCC1 [42-91]
IC50 [1]: < 50 nM
IC50 [2]: < 10 nM

CN(Cc1ccc(-c2cccc(C3(c4nc5c(c(=O)[nH]4)CN(C(=O)[C@H](O)c4cccc(C(F)(F)F)c4)CCC5)CC3)c2)cc1)C(=O)NC1CCCCC1 [42-93]
IC50 [1]: < 50 nM
IC50 [2]: < 3 nM

O=C([C@H](O)c1cccc(C(F)(F)F)c1)N1CCCc2nc(C3(c4cccc(-c5ccc(CN6CCC(OCc7ccccc7)CC6)cc5)c4)CC3)[nH]c(=O)c2C1 [42-95]
IC50 [1]: < 50 nM
IC50 [2]: < 10 nM

O=C([C@H](O)c1cccc(C(F)(F)F)c1)N1CCCc2nc(C3(c4cccc(-c5ccc(CN6CCc7c(Cl)cccc7C6)cc5)c4)CC3)[nH]c(=O)c2C1 [42-96]
IC50 [1]: < 50 nM
IC50 [2]: < 10 nM

O=C([C@H](O)c1cccc(C(F)(F)F)c1)N1CCCc2nc(C3(c4cncc(-c5ccccc5)c4)CC3)[nH]c(=O)c2C1 [43-1]
IC50 [1]: < 50 nM
IC50 [2]: < 3 nM

O=C([C@H](O)c1cccc(C(F)(F)F)c1)N1CCCc2nc(C3(c4cncc(-c5cnsc5)c4)CC3)[nH]c(=O)c2C1 [43-2]
IC50 [1]: < 50 nM

O=C(C(O)c1cccc(-c2cccc(OC(F)(F)F)c2)c1)N1CCc2nc(C3(c4ccccc4)CC3)[nH]c(=O)c2C1 (stereo not drawn) [44-1, 6-(2-hydroxy-2-(3′-(trifluoromethoxy)-[1,1′-biphenyl]-3-yl)acetyl)-2-(1-phenylcyclopropyl)-5,6,7,8-tetrahydropyrido[4,3-d]pyrimidin-4(3H)-one]
IC50 [1]: < 50 nM
IC50 [2]: < 10 nM

O=C(C(O)c1cccc(-c2cccc(OC(F)(F)F)c2)c1F)N1CCc2nc(C3(c4ccccc4)CC3)[nH]c(=O)c2C1 (stereo not drawn) [44-2]
IC50 [1]: < 50 nM
IC50 [2]: < 10 nM

O=C(C(O)c1cccc(-c2cc(Cl)cc(C(F)(F)F)c2)c1)N1CCc2nc(C3(c4ccccc4)CC3)[nH]c(=O)c2C1 (stereo not drawn) [44-3]
IC50 [1]: < 50 nM
IC50 [2]: < 10 nM

O=C(C(O)c1cccc(-c2cccc(C(F)(F)F)n2)c1)N1CCc2nc(C3(c4ccccc4)CC3)[nH]c(=O)c2C1 (stereo not drawn) [44-4]
IC50 [1]: < 50 nM
IC50 [2]: < 10 nM

O=C(C(O)c1cccc(-c2ccc(Cl)c(C(F)(F)F)c2)c1)N1CCc2nc(C3(c4ccccc4)CC3)[nH]c(=O)c2C1 (stereo not drawn) [44-5]
IC50 [1]: < 50 nM
IC50 [2]: < 10 nM

O=C(C(O)c1cccc(-c2cccc(C(F)(F)F)c2)c1)N1CCc2nc(C3(c4ccccc4)CC3)[nH]c(=O)c2C1 (stereo not drawn) [44-6]
IC50 [1]: < 50 nM
IC50 [2]: < 10 nM

CC(C)(C)c1cccc(-c2cccc(C(O)C(=O)N3CCc4nc(C5(c6ccccc6)CC5)[nH]c(=O)c4C3)c2)c1 (stereo not drawn) [44-7]
IC50 [1]: < 50 nM
IC50 [2]: < 10 nM

O=C(C(O)c1cccc(-c2cc(C(F)(F)F)cc(C(F)(F)F)c2)c1)N1CCc2nc(C3(c4ccccc4)CC3)[nH]c(=O)c2C1 (stereo not drawn) [44-8]
IC50 [1]: < 50 nM
IC50 [2]: < 10 nM

O=C(C(O)c1cccc(-c2cc3ccccc3s2)c1)N1CCc2nc(C3(c4ccccc4)CC3)[nH]c(=O)c2C1 (stereo not drawn) [44-9]
IC50 [1]: < 50 nM
IC50 [2]: < 10 nM

O=C(C(O)c1cccc(-c2cc(Cl)cc(Cl)c2)c1)N1CCc2nc(C3(c4ccccc4)CC3)[nH]c(=O)c2C1 (stereo not drawn) [44-10]
IC50 [1]: < 50 nM
IC50 [2]: < 10 nM

O=C(C(O)c1cccc(-c2cc(F)cc(Cl)c2)c1)N1CCc2nc(C3(c4ccccc4)CC3)[nH]c(=O)c2C1 (stereo not drawn) [44-11]
IC50 [1]: < 50 nM
IC50 [2]: < 10 nM

O=C(C(O)c1cccc(-c2cnc3ccccc3c2)c1)N1CCc2nc(C3(c4ccccc4)CC3)[nH]c(=O)c2C1 (stereo not drawn) [44-12]
IC50 [1]: < 50 nM
IC50 [2]: < 10 nM

O=C(C(O)c1cccc(-c2cc(C(F)(F)F)ccc2Cl)c1)N1CCc2nc(C3(c4ccccc4)CC3)[nH]c(=O)c2C1 (stereo not drawn) [44-13]
IC50 [1]: < 50 nM
IC50 [2]: < 10 nM

O=C(C(O)c1cccc(-c2ccc(F)c(Cl)c2)c1)N1CCc2nc(C3(c4ccccc4)CC3)[nH]c(=O)c2C1 (stereo not drawn) [44-14]
IC50 [1]: < 50 nM
IC50 [2]: < 10 nM

O=C(C(O)c1cccc(-c2ccc(Cl)c(F)c2)c1)N1CCc2nc(C3(c4ccccc4)CC3)[nH]c(=O)c2C1 (stereo not drawn) [44-15]
IC50 [1]: < 50 nM
IC50 [2]: < 10 nM

Cc1cc(Cl)cc(-c2cccc(C(O)C(=O)N3CCc4nc(C5(c6ccccc6)CC5)[nH]c(=O)c4C3)c2)c1 (stereo not drawn) [44-16]
IC50 [1]: < 50 nM
IC50 [2]: < 10 nM

O=C(C(O)c1cccc(-c2ccnc(C(F)(F)F)c2)c1)N1CCc2nc(C3(c4ccccc4)CC3)[nH]c(=O)c2C1 (stereo not drawn) [44-17]
IC50 [1]: < 50 nM
IC50 [2]: < 10 nM

O=C(C(O)c1cccc(-c2cccc(SC(F)(F)F)c2)c1)N1CCc2nc(C3(c4ccccc4)CC3)[nH]c(=O)c2C1 (stereo not drawn) [44-18]
IC50 [1]: < 50 nM
IC50 [2]: < 10 nM

O=C(C(O)c1cccc(-c2cncc(C(F)(F)F)c2)c1)N1CCc2nc(C3(c4ccccc4)CC3)[nH]c(=O)c2C1 (stereo not drawn) [44-19]
IC50 [1]: < 50 nM

O=C(C(O)c1cccc(-c2cccc(C3CC3)c2)c1)N1CCc2nc(C3(c4ccccc4)CC3)[nH]c(=O)c2C1 (stereo not drawn) [44-20]
IC50 [1]: < 50 nM

O=C(C(O)c1cccc(-c2cccc(Cl)c2)c1)N1CCc2nc(C3(c4ccccc4)CC3)[nH]c(=O)c2C1 (stereo not drawn) [44-21]
IC50 [1]: < 50 nM

O=C(C(O)c1cccc(-c2cccc(C(F)(F)F)c2)c1F)N1CCc2nc(C3(c4ccccc4)CC3)[nH]c(=O)c2C1 (stereo not drawn) [44-22]
IC50 [1]: < 50 nM

O=C(C(O)c1cccc(-c2ccnc(C(F)(F)F)c2)c1F)N1CCc2nc(C3(c4ccccc4)CC3)[nH]c(=O)c2C1 (stereo not drawn) [44-23]
IC50 [1]: < 50 nM

O=C(C(O)c1cccc(-c2ccc(OC(F)(F)F)cc2)c1)N1CCc2nc(C3(c4ccccc4)CC3)[nH]c(=O)c2C1 (stereo not drawn) [44-24]
IC50 [1]: < 50 nM

O=C(C(O)c1cccc(-c2ccc(C(F)(F)F)cc2)c1)N1CCc2nc(C3(c4ccccc4)CC3)[nH]c(=O)c2C1 (stereo not drawn) [44-25]
IC50 [1]: < 50 nM

Cc1ccc(-c2cccc(C(O)C(=O)N3CCc4nc(C5(c6ccccc6)CC5)[nH]c(=O)c4C3)c2)cc1Cl (stereo not drawn) [44-26]
IC50 [1]: < 50 nM

O=C(C(O)c1cccc(-c2csc(Cl)c2)c1)N1CCc2nc(C3(c4ccccc4)CC3)[nH]c(=O)c2C1 (stereo not drawn) [44-27]
IC50 [1]: < 50 nM

O=C(C(O)c1cccc(-c2cc(F)ccc2Cl)c1)N1CCc2nc(C3(c4ccccc4)CC3)[nH]c(=O)c2C1 (stereo not drawn) [44-28]
IC50 [1]: < 50 nM

COCCOc1cccc(-c2cccc(C(O)C(=O)N3CCc4nc(C5(c6ccccc6)CC5)[nH]c(=O)c4C3)c2)c1 (stereo not drawn) [44-29]
IC50 [1]: < 50 nM

O=C(C(O)c1cccc(-c2ccc(Cl)s2)c1)N1CCc2nc(C3(c4ccccc4)CC3)[nH]c(=O)c2C1 (stereo not drawn) [44-30]
IC50 [1]: < 50 nM

O=C(C(O)c1cccc(-c2ccc(C(F)F)cc2)c1)N1CCc2nc(C3(c4ccccc4)CC3)[nH]c(=O)c2C1 (stereo not drawn) [44-31]
IC50 [1]: < 50 nM

N#Cc1cccc(-c2cccc(C(O)C(=O)N3CCc4nc(C5(c6ccccc6)CC5)[nH]c(=O)c4C3)c2)c1 (stereo not drawn) [44-32]
IC50 [1]: < 50 nM

O=C(C(O)c1cccc(-c2cccc(F)c2)c1F)N1CCc2nc(C3(c4ccccc4)CC3)[nH]c(=O)c2C1 (stereo not drawn) [44-33]
IC50 [1]: < 50 nM

Cc1ccc(-c2cccc(C(O)C(=O)N3CCc4nc(C5(c6ccccc6)CC5)[nH]c(=O)c4C3)c2)cc1F (stereo not drawn) [44-34]
IC50 [1]: < 50 nM

Cc1cc(F)cc(-c2cccc(C(O)C(=O)N3CCc4nc(C5(c6ccccc6)CC5)[nH]c(=O)c4C3)c2)c1 (stereo not drawn) [44-35]
IC50 [1]: < 50 nM

O=C(C(O)c1cccc(-c2ccc(Cl)cc2)c1)N1CCc2nc(C3(c4ccccc4)CC3)[nH]c(=O)c2C1 (stereo not drawn) [44-36]
IC50 [1]: < 50 nM

CCOc1ccc(-c2cccc(C(O)C(=O)N3CCc4nc(C5(c6ccccc6)CC5)[nH]c(=O)c4C3)c2)cc1 (stereo not drawn) [44-37]
IC50 [1]: < 50 nM

CC(C)Oc1ccc(-c2cccc(C(O)C(=O)N3CCc4nc(C5(c6ccccc6)CC5)[nH]c(=O)c4C3)c2)cc1 (stereo not drawn) [44-38]
IC50 [1]: < 50 nM

Cc1ccc(F)cc1-c1cccc(C(O)C(=O)N2CCc3nc(C4(c5ccccc5)CC4)[nH]c(=O)c3C2)c1 (stereo not drawn) [44-39]
IC50 [1]: < 50 nM

O=C(C(O)c1cccc(-c2csc3ccccc23)c1)N1CCc2nc(C3(c4ccccc4)CC3)[nH]c(=O)c2C1 (stereo not drawn) [44-40]
IC50 [1]: < 50 nM

O=C(C(O)c1cccc(-c2ccc(C(F)(F)F)nc2)c1)N1CCc2nc(C3(c4ccccc4)CC3)[nH]c(=O)c2C1 (stereo not drawn) [44-41]
IC50 [1]: < 50 nM

CC(C)(C)c1ccc(-c2cccc(C(O)C(=O)N3CCc4nc(C5(c6ccccc6)CC5)[nH]c(=O)c4C3)c2)cc1 (stereo not drawn) [44-42]
IC50 [1]: < 50 nM

O=C(C(O)c1cccc(-c2ccccc2F)c1)N1CCc2nc(C3(c4ccccc4)CC3)[nH]c(=O)c2C1 (stereo not drawn) [44-43]
IC50 [1]: < 50 nM

O=C(C(O)c1cccc(-c2cccc(F)c2F)c1)N1CCc2nc(C3(c4ccccc4)CC3)[nH]c(=O)c2C1 (stereo not drawn) [44-44]
IC50 [1]: < 50 nM

O=C(C(O)c1cccc(-c2cc(F)cc(F)c2)c1)N1CCc2nc(C3(c4ccccc4)CC3)[nH]c(=O)c2C1 (stereo not drawn) [44-45]
IC50 [1]: < 50 nM

O=C(C(O)c1cccc(-c2cccc(C(F)(F)F)c2Cl)c1)N1CCc2nc(C3(c4ccccc4)CC3)[nH]c(=O)c2C1 (stereo not drawn) [44-46]
IC50 [1]: < 50 nM

O=C(C(O)c1cccc(-c2cccc(F)c2)c1)N1CCc2nc(C3(c4ccccc4)CC3)[nH]c(=O)c2C1 (stereo not drawn) [44-47]
IC50 [1]: < 50 nM

O=C(C(O)c1cccc(-c2cc(F)ccc2F)c1)N1CCc2nc(C3(c4ccccc4)CC3)[nH]c(=O)c2C1 (stereo not drawn) [44-48]
IC50 [1]: < 50 nM

O=C(C(O)c1cccc(-c2ccc(F)c(F)c2)c1)N1CCc2nc(C3(c4ccccc4)CC3)[nH]c(=O)c2C1 (stereo not drawn) [44-49]
IC50 [1]: < 50 nM

O=C(C(O)c1cccc(-c2ccc(F)cc2)c1)N1CCc2nc(C3(c4ccccc4)CC3)[nH]c(=O)c2C1 (stereo not drawn) [44-50]
IC50 [1]: < 50 nM

Cc1cccc(-c2cccc(C(O)C(=O)N3CCc4nc(C5(c6ccccc6)CC5)[nH]c(=O)c4C3)c2)c1 (stereo not drawn) [44-51]
IC50 [1]: < 50 nM

O=C(C(O)c1cccc(-c2ccc(F)cc2F)c1)N1CCc2nc(C3(c4ccccc4)CC3)[nH]c(=O)c2C1 (stereo not drawn) [44-52]
IC50 [1]: < 50 nM

COc1cccc(-c2cccc(C(O)C(=O)N3CCc4nc(C5(c6ccccc6)CC5)[nH]c(=O)c4C3)c2)c1 (stereo not drawn) [44-53]
IC50 [1]: < 50 nM

O=C(C(O)c1cccc(-c2ccccc2C(F)(F)F)c1)N1CCc2nc(C3(c4ccccc4)CC3)[nH]c(=O)c2C1 (stereo not drawn) [44-54]
IC50 [1]: < 50 nM

O=C(C(O)c1cccc(-c2ccccc2)c1)N1CCc2nc(C3(c4ccccc4)CC3)[nH]c(=O)c2C1 (stereo not drawn) [44-55]
IC50 [1]: < 50 nM

Reference: patent publication US12673946B2, “Pyrimidin-4(3H)-one derivatives as TRPV4 antagonists” (RaQualia Pharma Inc., priority 2020, dated 2026)
